Reference: ChEMBL document CHEMBL1201862, “PubChem BioAssay data set” (2004)
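Exposure lasted 48 hours, with cells grown in 96-well plates and compounds tested at five concentrations. At the GI50, growth is halved.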 Activity calls are given as the source filed them. Cut-off read from the data, not from the text of the source: active = GI50 up to about 1.1 µM and inactive = higher.

What was measured:
Assay in all cases: DTP human tumour cell line panel, 48 h
EKVX = tested on: EKVX
HOP-62 = tested on: HOP-62
M14 = tested on: M14
MDA-MB-435 = tested on: MDA-MB-435
Malme-3M = tested on: Malme-3M
OVCAR-4 = tested on: OVCAR-4
OVCAR-5 = tested on: OVCAR-5
RXF 393 = tested on: RXF 393
SF-295 = tested on: SF-295
SK-MEL-28 = tested on: SK-MEL-28
SNB-75 = tested on: SNB-75
SR = tested on: SR
T47D = tested on: T47D
TK-10 = tested on: TK-10
COLO 205 = tested on: COLO 205
MCF7 = tested on: MCF7
OVCAR-8 = tested on: OVCAR-8
SF-539 = tested on: SF-539
SK-OV-3 = tested on: SK-OV-3

Measured: GI50

N=C(CC/C(N)=N/O)NO
inactive: EKVX > 100 µM | HOP-62 > 100 µM | M14 38.7 µM | MDA-MB-435 > 100 µM | Malme-3M > 100 µM | OVCAR-4 > 100 µM | OVCAR-5 > 100 µM | RXF 393 > 100 µM | SF-295 > 100 µM | SK-MEL-28 > 100 µM | SNB-75 > 100 µM | SR > 100 µM | T47D > 100 µM | TK-10 > 100 µM

C=C1CCc2ccccc2C1=O
inactive: COLO 205 > 100 µM | EKVX > 100 µM | HOP-62 > 100 µM | M14 > 100 µM | MCF7 56 µM | MDA-MB-435 29.3 µM | Malme-3M > 100 µM | OVCAR-4 > 100 µM | OVCAR-5 > 100 µM | OVCAR-8 > 100 µM | RXF 393 > 100 µM | SF-295 51.3 µM | SF-539 > 100 µM | SK-OV-3 > 100 µM | SNB-75 > 100 µM | SR 19.2 µM | TK-10 > 100 µM

CSc1[nH]cnc1C(N)=S
inactive: COLO 205 > 100 µM | EKVX > 100 µM | HOP-62 > 100 µM | M14 > 100 µM | MCF7 > 100 µM | MDA-MB-435 > 100 µM | Malme-3M > 100 µM | OVCAR-5 > 100 µM | OVCAR-8 > 100 µM | RXF 393 > 100 µM | SF-295 > 100 µM | SF-539 > 100 µM | SK-MEL-28 > 100 µM | SK-OV-3 > 100 µM | SNB-75 > 100 µM | T47D > 100 µM | TK-10 > 100 µM

COc1cc2c(cc1OCCCCN1C(=O)c3cccc4cccc(c34)C1=O)N=C[C@@H]1CCCN1C2=O
inactive: COLO 205 2.72 µM | EKVX 17.1 µM | HOP-62 7.73 µM | M14 5.56 µM | MCF7 1.69 µM | MDA-MB-435 3.83 µM | Malme-3M 3.72 µM | OVCAR-4 3.27 µM | OVCAR-5 4.95 µM | OVCAR-8 3.11 µM | RXF 393 2.09 µM | SF-295 6.04 µM | SF-539 2.55 µM | SK-MEL-28 11.7 µM | SK-OV-3 9.48 µM | T47D 7.93 µM | TK-10 2.47 µM

O=C1C=C(O)C(=O)c2c(O)ccc(O)c21
inactive: COLO 205 92 µM | HOP-62 > 100 µM | M14 > 100 µM | MCF7 > 100 µM | MDA-MB-435 > 100 µM | Malme-3M 88.5 µM | OVCAR-4 > 100 µM | OVCAR-5 > 100 µM | OVCAR-8 > 100 µM | RXF 393 > 100 µM | SF-295 > 100 µM | SF-539 > 100 µM | SK-MEL-28 > 100 µM | SK-OV-3 > 100 µM | SNB-75 > 100 µM | T47D > 100 µM | TK-10 > 100 µM

CCOc1cc(/C=N\N(C)C)cc(/C=N\N(C)C)c1O
inactive: COLO 205 18.7 µM | EKVX 71.6 µM | HOP-62 50.8 µM | M14 40.2 µM | MDA-MB-435 32.5 µM | Malme-3M 32.4 µM | OVCAR-4 > 100 µM | OVCAR-5 48.2 µM | OVCAR-8 21.6 µM | SF-295 41.3 µM | SF-539 20.6 µM | SK-MEL-28 35.4 µM | SK-OV-3 29.4 µM | SNB-75 28.8 µM | SR 38 µM | T47D 11.7 µM | TK-10 69.2 µM

CN1C(=O)C(=Cc2ccc(Br)cc2)C(=O)N(C)C1=O
inactive: COLO 205 > 100 µM | EKVX > 100 µM | HOP-62 > 100 µM | M14 > 100 µM | MCF7 > 100 µM | MDA-MB-435 > 100 µM | OVCAR-4 > 100 µM | OVCAR-5 > 100 µM | RXF 393 40.8 µM | SF-295 > 100 µM | SK-MEL-28 > 100 µM | SK-OV-3 > 100 µM | SNB-75 > 100 µM | T47D > 100 µM | TK-10 > 100 µM
